Data as given in patent US10221172B2, “Benzothiazole and benzisothiazole-substituted compounds as mGluR4 allosteric potentiators, compositions, and methods of treating neurological dysfunction” (Vanderbilt University, priority 2015, dated 2019).

Target: human mGluR4 (Homo sapiens (Human), UniProt Q14833)
Experiment: mGluR4 potentiation assay, CHO cells transfected with human mGluR4, Ca2+-sensitive dye, EC20 agonist
Type: cell-based
Conditions: potentiation of mGluR4
Method: The disclosed compounds and compositions can be evaluated for their ability to act as a potentiator of metabotropic glutamate receptor activity, in particular mGluR4 activity, by any suitable known methodology known in the art. For example, Chinese Hamster Ovary (CHO) cells transfected with human mGluR4 or HEK cells co-transfected with rat mGluR4 and the G-protein regulated Inwardly Rectifying Potassium channel (GIRK) were plated in clear bottom assay plates for assay in a Hamamatsu FDSS Fluorometric Plate Reader. The cells were loaded with either a Ca2+-sensitive fluorescent dye or the thallium responsive dye and the plates were washed and placed into a suitable kinetic plate reader. For human mGluR4 assays, a fluorescence baseline was established for 3-5 seconds, the disclosed compounds were then added to the cells, and the response in cells was measured. Approximately two and a half minutes later, a concentration of mGluR4 orthosteric agonist (e.g. glutamate or L-AP4) eliciting approximately 20% (EC20) of the maximal agonist response was added to the cells, and the response was measured. Two minutes later, a concentration of mGluR4 agonist (e.g. glutamate or L-AP4) eliciting 80% (EC80) of the maximal agonist response was added to the cells, and the response was measured. For rat mGluR4/GIRK experiments, a baseline was established for approximately five seconds, disclosed compounds were added, and either an EC20 or EC80 concentration of agonist was added approximately two and one half minutes later. Potentiation of the agonist response of mGluR4 by the disclosed compounds was observed as an increase in response to the EC20 concentration of agonist in the presence of compound compared to the response to agonist in the absence of compound. Similarly, antagonism of the agonist response of mGluR4 by the disclosed compounds was observed as a decrease in response to the EC80 concentration of agonist in the presence of compound compared to the response to agonist in the absence of compound.
The above described assay operated in two modes. In the first mode, a range of concentrations of the disclosed compounds are added to cells, followed by a single fixed concentration of agonist. If the compound acts as a potentiatior, an EC50 value for potentiation and a maximum extent of potentiation by the compound at this concentration of agonist is determined by non-linear curve fitting. If the compound acts as a noncompetitive antagonist, an IC50 value is determined by non-linear curve fitting. In the second mode, several fixed concentrations of the disclosed compounds are added to various wells on a plate, followed by a range in concentrations of agonist for each concentration of disclosed compound. The EC50 values for the agonist at each concentration of compound are determined by non-linear curve fitting. A decrease in the EC50 value of the agonist with increasing concentrations of the sample compound (a leftward shift of the agonist concentration-response curve) is an indication of the degree of mGluR4 potentiation at a given concentration of the sample compound. A decrease in the maximal response of the agonist with increasing concentrations of the sample compounds, with or without a rightward shift in agonist potency, is an indication of the degree of noncompetitive antagonism at mGluR4. The second mode also indicates whether the sample compounds also affect the maximum response to mGluR4 to agonists.

[1] = main compound table, species not given
[2] = summary list repeated at the end of the table, species not stated

Chain of human mGluR4 (Q14833 33-912): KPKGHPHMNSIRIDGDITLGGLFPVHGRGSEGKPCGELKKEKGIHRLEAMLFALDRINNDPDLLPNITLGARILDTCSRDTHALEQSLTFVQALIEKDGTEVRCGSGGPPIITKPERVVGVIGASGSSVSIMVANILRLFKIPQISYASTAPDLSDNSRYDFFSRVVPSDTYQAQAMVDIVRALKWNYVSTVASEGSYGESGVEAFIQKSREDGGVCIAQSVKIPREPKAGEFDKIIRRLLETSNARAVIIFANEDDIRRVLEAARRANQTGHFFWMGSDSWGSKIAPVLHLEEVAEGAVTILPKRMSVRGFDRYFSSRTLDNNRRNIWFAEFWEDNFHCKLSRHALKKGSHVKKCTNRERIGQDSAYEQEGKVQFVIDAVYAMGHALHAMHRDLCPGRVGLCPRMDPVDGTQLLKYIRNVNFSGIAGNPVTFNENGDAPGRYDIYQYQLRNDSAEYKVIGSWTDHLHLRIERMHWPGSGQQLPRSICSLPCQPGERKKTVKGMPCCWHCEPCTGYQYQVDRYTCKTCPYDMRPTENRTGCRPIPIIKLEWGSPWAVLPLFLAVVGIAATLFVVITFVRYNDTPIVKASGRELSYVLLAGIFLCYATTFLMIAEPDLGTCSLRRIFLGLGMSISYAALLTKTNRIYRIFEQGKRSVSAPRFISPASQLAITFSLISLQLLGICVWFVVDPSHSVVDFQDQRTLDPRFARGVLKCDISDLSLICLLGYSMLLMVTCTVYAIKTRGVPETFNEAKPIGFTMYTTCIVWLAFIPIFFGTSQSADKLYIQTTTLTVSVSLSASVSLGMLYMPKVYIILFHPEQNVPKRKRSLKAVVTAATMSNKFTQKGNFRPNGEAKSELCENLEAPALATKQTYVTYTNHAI

Row | SMILES | EC50 [1] [nM] | EC50 [2] [nM]
1 | c1cnc2c(Nc3ccc4c(-c5ccsc5)nsc4c3)n[nH]c2n1 [Example 46, N-(1H-pyrazolo[3,4-b]pyrazin-3-yl)-3-(thiophen-3-yl)benzo[d] isothiazol-6-amine] | 144 | 144
2 | CC(=O)N1CCC(c2nsc3cc(Nc4n[nH]c5nccnc45)ccc23)CC1 [Example 63, 1-(4-(6-((1H-pyrazolo [3,4-b]pyrazin-3-yl)amino)benzo[d]isothiazol-3-yl)piperidin-1-yl)ethan-1-one] | 154 | 154
3 | FC1CCN(Cc2nsc3cc(Nc4n[nH]c5cccnc45)cnc23)CC1 [Example 51, 3-((4-fluoropiperidin-1-yl)methyl)-N-(1H-pyrazolo[4,3-b]pyridin-3-yl)isothiazolo[4,5-b] pyridin-6-amine] | 247 | 247
4 | O=C(c1nsc2cc(Nc3n[nH]c4cccnc34)ccc12)N1CCC(N2CCOCC2)C1 (stereo not shown) [Example 14, (6-((1H-pyrazolo[4,3-b]pyridin-3-yl)amino)benzo[d]isothiazol-3-yl) (3-morpholinopyrrolidin-1-yl)methanone] | 3450 | 3450
5 | CC(C)(C)C1CCN(Cc2nsc3cc(Nc4n[nH]c5ncccc45)cnc23)CC1 [Example 57, 3-((4-(tert-butyl)piperidin-1-yl)methyl)-N-(1H-pyrazolo[3,4-b]pyridin-3-yl)isothiazolo[4,5-b] pyridin-6-amine] | 4130 | 4130
6 | FC1(F)CCCN(Cc2nsc3cc(Nc4n[nH]c5ncccc45)cnc23)C1 [Example 62, 3-((3,3-difluoropiperidin-1-yl)methyl)-N-(1H-pyrazolo[3,4-b]pyridin-3-yl)isothiazolo[4,5-b] pyridin-6-amine] | 101 | 101
7 | CC1CCN(C(=O)c2nsc3cc(Nc4n[nH]c5cccnc45)ccc23)CC1 [Example 19, (6-((1H-pyrazolo [4,3-b]pyridin-3-yl)amino)benzo[d]isothiazol-3-yl) (4-methylpiperidin-1-yl)methanone] | 408 | 408
8 | CN1CCN(C(=O)c2nsc3cc(Nc4n[nH]c5cccnc45)ccc23)CC1 [Example 12, (6-((1H-pyrazolo [4,3-b]pyridin-3-yl)amino)benzo[d]isothiazol-3-yl)(4-methylpiperazin-1-yl) methanone] | 1140 | 1140
9 | CCc1nsc2cc(Nc3n[nH]c4ncccc34)cnc12 [Example 42, 3-ethyl-N-(1H-pyrazolo[3,4-b]pyridin-3-yl)isothiazolo [4,5-b]pyridin-6-amine] | 100 | 100
10 | CCCc1nsc2cc(Nc3n[nH]c4cccnc34)ccc12 [Example 23, 3-propyl-N-(1H-pyrazolo [4,3-b]pyridin-3-yl)benzo[d]isothiazol-6-amine] | 56 | 56
11 | O=C(c1nsc2cc(Nc3n[nH]c4cccnc34)ccc12)N1CCCOCC1 [Example 17, (6-((1H-pyrazolo[4,3-b]pyridin-3-yl)amino)benzo[d]isothiazol-3-yl)(1,4-oxazepan-4-yl)methanone] | 607 | 607
12 | CC(C)(C)Cc1nsc2cc(Nc3n[nH]c4cccnc34)ccc12 [Example 2, 3-neopentyl-N-(1H-pyrazolo[4,3-b]pyridin-3-yl)benzo[d] isothiazol-6-amine] | 284 | 284
13 | CN(Cc1nsc2cc(Nc3n[nH]c4ncccc34)cnc12)C1CC(F)(F)C1 [Example 53, 3-(((3,3-difluorocyclobutyl) (methyl)amino)methyl)-N-(1H-pyrazolo[3,4-b]pyridin-3-yl)isothiazolo[4,5-b]pyridin-6-amine] | 568 | 568
14 | Cc1nsc2ccc(Nc3n[nH]c4cccnc34)cc12 [Example 1, 3-methyl-N-(1H-pyrazolo[4,3-b]pyridin-3-yl)benzo[d]isothiazol-5-amine] | 187 | 187
15 | CN(C(=O)c1nsc2cc(Nc3n[nH]c4cccnc34)ccc12)C1CC(F)(F)C1 [Example 15, 6-((1H-pyrazolo[4,3-b]pyridin-3-yl)amino)-N-(3,3-difluorocyclobutyl)-N-methylbenzo[d] isothiazole-3-carboxamide] | 164 | 164
16 | OCc1nsc2cc(Nc3n[nH]c4cccnc34)cnc12 [Example 47, (6-((1H-pyrazolo[4,3-b]pyridin-3-yl)amino)isothiazolo[4,5-b]pyridin-3-yl)methanol] | 1060 | 1060
17 | CCC(C)c1nsc2cc(Nc3n[nH]c4cccnc34)cnc12 (stereo not shown) [Example 40, 3-(sec-butyl)-N-(1H-pyrazolo[4,3-b]pyridin-3-yl)isothiazolo[4,5-b] pyridin-6-amine] | 54.2 | 54.2
18 | O=C(c1nsc2cc(Nc3n[nH]c4cccnc34)ccc12)N1CCCC1 [Example 10, (6-((1H-pyrazolo [4,3-b]pyridin-3-yl)amino)benzo[d]isothiazol-3-yl) (pyrrolidin-1-yl) methanone] | 1340 | 1340
19 | c1cnc2c(Nc3cnc4c(CN5CCOCC5)nsc4c3)n[nH]c2c1 [Example 54, 3-(morpholinomethyl)-N-(1H-pyrazolo[4,3-b]pyridin-3-yl)isothiazolo[4,5-b] pyridin-6-amine] | 630 | 630
20 | CCCc1nsc2cc(Nc3n[nH]c4nccnc34)ccc12 [Example 24, 3-propyl-N-(1H-pyrazolo[3,4-b]pyrazine-3-yl)benzo[d]isothiazol-6-amine] | 23.4 | 23.4
21 | O=C(C1CCOCC1)N1CCC(c2nsc3cc(Nc4n[nH]c5cccnc45)ccc23)CC1 [Example 72, (4-(6-((1H-pyrazolo [4,3-b]pyridin-3-yl)amino)benzo[d]isothiazol-3-yl)piperidin-1-yl) (tetrahydro-2H-pyran-4-yl)methanone] | 1200 | 1200
22 | c1cnc2[nH]nc(Nc3cnc4c(CN5CCCCC5)nsc4c3)c2c1 [Example 49, 3-(piperidin-1-ylmethyl)-N-(1H-pyrazolo[3,4-b]pyridin-3-yl)isothiazolo[4,5-b] pyridin-6-amine] | 1560 | 1560
23 | CN1CCN(C(=O)c2nsc3cc(Nc4n[nH]c5nccnc45)ccc23)CC1=O [Example 32, 4-(6-((1H-pyrazolo[3,4-b]pyrazin-3-yl)amino)benzo [d]isothiazole-3-carbonyl)-1-methylpiperazin-2-one] | 1530 | 1530
24 | FC1(F)CCCN(Cc2nsc3cc(Nc4n[nH]c5cccnc45)cnc23)C1 [Example 61, 3-((3,3-difluoropiperidin-1-yl)methyl)-N-(1H-pyrazolo[4,3-b]pyridin-3-yl)isothiazolo[4,5-b] pyridin-6-amine] | 55.9 | 55.9
25 | Cc1nsc2cc(Nc3n[nH]c4ncccc34)cnc12 [Example 48, 3-methyl-N-(1H-pyrazolo [3,4-b]pyridin-3-yl)isothiazolo[4,5-b] pyridin-6-amine] | 180 | 180
26 | c1ccc(-c2nsc3cc(Nc4n[nH]c5cccnc45)ccc23)cc1 [Example 43, 3-phenyl-N-(1H-pyrazolo [4,3-b]pyridin-3-yl)benzo[d]isothiazol-6-amine] | 226 | 226
27 | CC(C)(C)Cc1nsc2cc(Nc3n[nH]c4ncccc34)ccc12 [Example 22, 3-neopentyl-N-(1H-pyrazolo[3,4-b]pyridin-3-yl)benzo[d] isothiazol-6-amine] | 884 | 884
28 | O=C(c1nsc2cc(Nc3n[nH]c4cccnc34)ccc12)N1CCC(F)(F)C1 [Example 3, (6-((1H-pyrazolo [4,3-b]pyridin-3-yl)amino)benzo[d]isothiazol-3-yl) (3,3-difluoropyrrolidin-1-yl) methanone] | 325 | 325
29 | c1cnc2c(Nc3ccc4c(-c5ccsc5)nsc4c3)n[nH]c2c1 [Example 45, N-(1H-pyrazolo[4,3-b]pyiridn-3-yl)-3-(thiophen-3-yl)benzo[d] isothiazol-6-amine] | 216 | 216
